Read-outs that look alike come from different tables or passages of the source. Positions of bridges follow the written chain, without caps; N, C: chain ends. Residues, ends and D or L forms follow the SMILES beside them. No end group written: not given here.
What was measured:
PTmAb0005 [1] = experiment: Phage display ranking of peptide ligands for PTmAb0005; assay type: binding; settings: for Rank (ECL) PTmAb0005: primary phage display biopannings (Table 6); for PTmAb Rank 0005: IgEC67 mutants (Table 8)
Description: (§1) Phage display libraries were used to map the binding sites of the monoclonal antibodies using three different phage libraries, displaying either the XCX15, XCX10 or XAX10 peptide sequence (where X is any amino acid) at the N-terminus of the phage gVIIIp. Tables 6 and 7 show the results of selecting for peptide ligands with the anti human IgE monoclonal antibodies […]. […]
This was performed by introducing random mutations by PCR mutagenesis and sub-cloning into the Fuse 5 vector for minor filamentous phage protein gIIIp display. These, and other results, confirmed the importance of the amino acids within IgEC67 which aligned with the Cε2 epitope. […] Mutations in other sites had little effect on the affinity to PTmAb0005.
(§2) This involved a DNA sub-cloning transfer from the major coat protein (gVIIIp) filamentous phage display vector to a lower copy number minor phage coat protein (gIIIp) display vector with a random PCR step. […] Included in the tables are ranking orders and also BIAcore affinities where available.

PTmAb0005 [2] = experiment: BIAcore affinity to PTmAb0005; assay type: binding
From the text: as §2
(§3) Thus indicating the importance of correct presentation of the peptides of the present invention to adopt a shape which closely resembles the native target in the context of the whole IgE molecule. [drawing]

PTmAb0011 [3] = experiment: BIAcore affinity to PTmAb0011; assay type: binding, mouse; settings: for Kd: read-out: PTmAb BIAcore KD^Rel (μM) PTmAb0011
From the text: as §2, §3

PTmAb0011 [4] = experiment: Phage display ranking of peptide ligands for PTmAb0011; assay type: binding, mouse; settings: for Rank (ECL) PTmAb0011: primary phage display biopannings (Table 7); for PTmAb Rank 0011: IgEC67 mutants (Table 8)
From the text: as §1, §2

[5] = read-out: PTmAb BIAcore KD^Rel (μM) PTmAb0005

In the case of `CSCC[C@H](NC(=O)[C@H](CCC(N)=O)NC(=O)CNC(=O)[C@H](Cc1ccc(O)cc1)NC(=O)[C@@H](NC(=O)[C@H](CC(C)C)NC(=O)[C@H](CS)NC(=O)[C@@H](N)CCC(=O)O)C(C)C)C(=O)N[C@@H](C)C(=O)N[C@@H](CC(=O)O)C(=O)N[C@@H](CS)C(=O)N[C@@H](C)C(=O)N[C@@H](C)C(=O)NCC(=O)NCC(=O)N[C@@H](Cc1c[nH]c2ccccc12)C(=O)N1CCC[C@H]1C(=O)O` [IgEC13] (H-ECLVYGQMADCAAGGWP-OH), the “Rank (ECL) PTmAb0005” value (PTmAb0005 [1]) is reported as 5, the Kd (PTmAb0005 [2]; [5]) is reported as greater than 1000 µM and the Kd (PTmAb0011 [3]) is reported as greater than 1000 µM.

For `CSCC[C@H](NC(=O)[C@H](CCC(N)=O)NC(=O)[C@H](CC(C)C)NC(=O)CNC(=O)[C@H](CCC(=O)O)NC(=O)[C@H](CC(C)C)NC(=O)[C@@H](NC(=O)[C@H](C)NC(=O)[C@H](CC(N)=O)NC(=O)[C@H](CS)NC(=O)[C@@H](N)CCC(N)=O)C(C)C)C(=O)N[C@H](C(=O)N[C@@H](CC(=O)O)C(=O)N[C@@H](Cc1c[nH]cn1)C(=O)N[C@@H](CS)C(=O)N[C@@H](Cc1c[nH]c2ccccc12)C(=O)N[C@@H](CC(N)=O)C(=O)O)C(C)C` [IgEC26] (H-QCNAVLEGLQMVDHCWN-OH), the “Rank (ECL) PTmAb0005” value (PTmAb0005 [1]) was 43, the Kd (PTmAb0005 [2]; [5]) was 3 µM and the Kd (PTmAb0011 [3]) was 53.4 µM.

In the case of `CSCC[C@H](NC(=O)[C@H](CCC(=O)O)NC(=O)[C@H](CO)NC(=O)[C@H](CO)NC(=O)[C@@H]1CCCN1C(=O)[C@@H](NC(=O)[C@H](CCSC)NC(=O)[C@H](CCC(N)=O)NC(=O)[C@@H](NC(=O)[C@H](CCC(=O)O)NC(=O)[C@@H]1CCCN1C(=O)[C@H](CC(=O)O)NC(=O)[C@H](C)NC(=O)[C@@H](NC(=O)[C@H](CS)NC(=O)[C@@H](N)CS)C(C)C)[C@@H](C)O)[C@@H](C)O)C(=O)N[C@@H](Cc1ccccc1)C(=O)O` [IgEC29] (H-CCVADPETQMTPSSEMF-OH), the “Rank (ECL) PTmAb0005” value (PTmAb0005 [1]) is reported as 40, the Kd (PTmAb0005 [2]; [5]) is reported as greater than 600 µM and the Kd (PTmAb0011 [3]) is reported as greater than 600 µM.

In the case of `CC[C@H](C)[C@H](NC(=O)[C@H](CCCCN)NC(=O)[C@H](CC(C)C)NC(=O)[C@H](CS)NC(=O)[C@@H](N)CCC(=O)O)C(=O)N[C@@H](CCC(=O)O)C(=O)N[C@@H](CCC(N)=O)C(=O)N[C@@H](CCC(N)=O)C(=O)N[C@@H](CS)C(=O)N[C@@H](C)C(=O)N[C@@H](CC(=O)O)C(=O)N[C@H](C(=O)N[C@H](C(=O)N[C@@H](CCC(=O)O)C(=O)N[C@H](C(=O)N1CCC[C@H]1C(=O)N[C@@H](CCCNC(=N)N)C(=O)O)[C@@H](C)CC)C(C)C)[C@@H](C)CC` [IgEC42] (H-ECLKIEQQCADIVEIPR-OH), the “Rank (ECL) PTmAb0005” value (PTmAb0005 [1]) is reported as 15, the Kd (PTmAb0005 [2]; [5]) is reported as 19.4 µM and the Kd (PTmAb0011 [3]) is reported as greater than 500 µM.

With `CSCC[C@@H]1NC(=O)[C@H](C(C)C)NC(=O)[C@H](CCC(N)=O)NC(=O)CNC(=O)[C@H](CC(=O)O)NC(=O)[C@H](CCC(=O)O)NC(=O)[C@H](CC(C)C)NC(=O)[C@@H](NC(C)=O)CSSC[C@@H](C(=O)N2CCC[C@H]2C(=O)N[C@@H](CCCNC(=N)N)C(=O)N[C@@H](CCC(=O)O)C(=O)N[C@@H](C)C(=O)N[C@@H](C)C(=O)N[C@@H](CCC(=O)O)C(=O)NCC(=O)N[C@@H](CC(=O)O)C(=O)N[C@@H](CCCCNC(C)=O)C(N)=O)NC(=O)[C@H](CC(C)C)NC(=O)[C@H](CC(=O)O)NC(=O)[C@H](C(C)C)NC(=O)[C@H](CC(=O)O)NC1=O` [PT1079] (Ac-CLEDGQVMDVDLCPREAAEGDK(Ac)-NH2; disulfide 1-13) the Kd (PTmAb0005 [2]; BIAcore, read-out: apparent affinity to PTmAb0005) was 0.02 µM.

ACFSRNGQVTDVPHSCY [EEC41] was tested, and the “Rank (ECL) PTmAb0011” value (PTmAb0011 [4]) was 31.

ADGAACFMNKQMADLELCPRVAAEA [IgEC67-2] was tested, and the “PTmAb Rank 0005” value (PTmAb0005 [1]) was 3.2 and the “PTmAb Rank 0011” value (PTmAb0011 [4]) was 1.8.

ADGAECFMNKQLADSELCPRVAAEA [IgEC67-13] was tested, and the “PTmAb Rank 0005” value (PTmAb0005 [1]) was 1.1 and the “PTmAb Rank 0011” value (PTmAb0011 [4]) was 0.8.

With ADGAGCFINKQLADLELCPREAAEA [IgEC67-12] the “PTmAb Rank 0005” value (PTmAb0005 [1]) was 3 and the “PTmAb Rank 0011” value (PTmAb0011 [4]) was 1.9.

ADGAGCFINKQLADLELCPRVAAEA [IgEC67-3] was tested, and the “PTmAb Rank 0005” value (PTmAb0005 [1]) was 3 and the “PTmAb Rank 0011” value (PTmAb0011 [4]) was 1.7.

For ADGAGCFMNKQLADLELCPREAAEA [IgEC67-7], the “PTmAb Rank 0005” value (PTmAb0005 [1]) was 1 and the “PTmAb Rank 0011” value (PTmAb0011 [4]) was 1.

With ADGAGCFMNKQLADLEMCPRDDAEA [IgEC67-9] the “PTmAb Rank 0005” value (PTmAb0005 [1]) was 2.7 and the “PTmAb Rank 0011” value (PTmAb0011 [4]) was 2.4.

With ADGAGCFMNKQLADPELCPREAEEA [IgEC67-4] the “PTmAb Rank 0005” value (PTmAb0005 [1]) was 2.4 and the “PTmAb Rank 0011” value (PTmAb0011 [4]) was 1.3.

For ADGAGCFMNKQLVDLELCPRGAAEA [IgEC67-5], the “PTmAb Rank 0005” value (PTmAb0005 [1]) was 1.9 and the “PTmAb Rank 0011” value (PTmAb0011 [4]) was 1.6.

In the case of ADGAGCFMNKQMADLELCPREAAEA [IgEC67-10], the “PTmAb Rank 0005” value (PTmAb0005 [1]) is reported as 4.2 and the “PTmAb Rank 0011” value (PTmAb0011 [4]) is reported as 2.3.

For ADGAGCFMNKQMADLELCPRTAAEA [IgEC67-1], the “PTmAb Rank 0005” value (PTmAb0005 [1]) was 4.1 and the “PTmAb Rank 0011” value (PTmAb0011 [4]) was 2.2.

With ADGAGCFMNKQMADWEMCPRAAAEA [IgEC67-11] the “PTmAb Rank 0005” value (PTmAb0005 [1]) was 1.8 and the “PTmAb Rank 0011” value (PTmAb0011 [4]) was 1.9.

In the case of ADGAGCFMNKQQADLELCPRGAAEA [IgEC67-14], the “PTmAb Rank 0005” value (PTmAb0005 [1]) is reported as 1.2 and the “PTmAb Rank 0011” value (PTmAb0011 [4]) is reported as 0.9.

ADGAGCFMNNQLADWELCPRAAAEA [IgEC67-6] was tested, and the “PTmAb Rank 0005” value (PTmAb0005 [1]) was 1.9 and the “PTmAb Rank 0011” value (PTmAb0011 [4]) was 1.6.

With “CLEDGQVMDVDCPREAAEGDK (disulfide 1-12 (inferred)) [PT1078, P1 mimotope]” the “binding of the peptide to PTmAb0005 compared with PT1079” value (PTmAb0005 [2]) was “reduced the binding” and the “binding of the peptide to PTmAb0011 compared with PT1079” value (PTmAb0011 [3]) was “reduced the binding”.

In the case of DCEEPMCSPVLLQKLKP [EEC17/47/25], the “Rank (ECL) PTmAb0011” value (PTmAb0011 [4]) is reported as 147.

DCLSKGQMADLC [EED147/173] was tested, and the “Rank (ECL) PTmAb0011” value (PTmAb0011 [4]) was 281.

For DCVVDGDRLVCL [EED34/104], the “Rank (ECL) PTmAb0011” value (PTmAb0011 [4]) was 3.

ECNQNLSGSLRHVDLNC [EEC40] was tested, and the “Rank (ECL) PTmAb0011” value (PTmAb0011 [4]) was 547.

With ECPRWPLMGDGC [EED139] the “Rank (ECL) PTmAb0011” value (PTmAb0011 [4]) was 26.

In the case of FCPEPICSPPLSRMTLS [EEC147], the “Rank (ECL) PTmAb0011” value (PTmAb0011 [4]) is reported as 883.

For GCPMWPQPDDEC [EED132], the “Rank (ECL) PTmAb0011” value (PTmAb0011 [4]) was 28.

With GCPTWPRVGDHC [EED36] the “Rank (ECL) PTmAb0011” value (PTmAb0011 [4]) was 52.

GCQVGELVWCRE [EED134] was tested, and the “Rank (ECL) PTmAb0011” value (PTmAb0011 [4]) was 14.

From US20050214285A1, “Epitopes or mimotopes derived from the C-epsilon-3 or C-epsilon-4 domains of IgE, antagonists thereof, and their therapeutic uses” (SmithKline Beecham Biologicals, s.a. and Peptide …, priority 1999, published 2005)
